Measurements published in patent publication US20230114241A1, “METHODS OF TREATING EPILEPSY USING THE SAME” (Trevena, Inc., priority 2019, published 2023).

Target: human sphingosine-1-phosphate receptor 1 (S1P1) (Homo sapiens, UniProt P21453)
Experiment: Inhibition of cAMP production (HTRF cAMP HiRange), S1P1 CHO-K1 cells
Format: cell-based
Conditions: inhibition of cAMP production, S1P1; read-out: hS1P1 CAMP pEC50 (converted)
Method: Stable clonal Chinese hamster ovary K1 (CHO-K1) cells co-expressing EA-β-arrestin2 and the human sphingosine-1-phosphate receptor 1 (NM_001400, S1P1) with a C-terminal Prolink™ tag were purchased from DiscoverX corporation (Cat #: 93-0207C2).
Cell lines were cultured in AssayComplete™ Media 6 (DiscoverX Corporation, Cat #: 920018GF2) at 37° C. and 5% CO2 in a humidified CO2 and temperature-controlled incubator. To begin assay plating, cells were washed with Dulbecco's phosphate buffered saline (CellGro, Cat #: 21-031-CV) and lifted from the culturing flask by incubation (37° C., 5 min) with CellStripper (Cellgro, Cat #: 25-056-CI). […] Plated cells were incubated overnight at 37° C. and 5% CO2 in a humidified CO2 and temperature-controlled incubator.
Agonist-promoted G-protein responses were determined by measuring changes in intracellular cAMP using the HTRF® cAMP HiRange kit (CisBio, Cat #: 62AM6PEJ) based on time-resolved fluorescence resonance energy transfer (TR-FRET) technology. […] Following a 30-minute incubation at 37° C. and 5% CO2 in a humidified CO2 and temperature-controlled incubator, the components of the cAMP HiRange kit were added as per the manufacturer's instructions. After an hour incubation at room temperature, plates were analyzed by a BMG PheraStar microplate reader.
These values are normalized to fingolimod, a known agonist of the sphingosine-1-phosphate 1 receptor.

human sphingosine-1-phosphate receptor 1 (S1P1), sequence (P21453 whole entry): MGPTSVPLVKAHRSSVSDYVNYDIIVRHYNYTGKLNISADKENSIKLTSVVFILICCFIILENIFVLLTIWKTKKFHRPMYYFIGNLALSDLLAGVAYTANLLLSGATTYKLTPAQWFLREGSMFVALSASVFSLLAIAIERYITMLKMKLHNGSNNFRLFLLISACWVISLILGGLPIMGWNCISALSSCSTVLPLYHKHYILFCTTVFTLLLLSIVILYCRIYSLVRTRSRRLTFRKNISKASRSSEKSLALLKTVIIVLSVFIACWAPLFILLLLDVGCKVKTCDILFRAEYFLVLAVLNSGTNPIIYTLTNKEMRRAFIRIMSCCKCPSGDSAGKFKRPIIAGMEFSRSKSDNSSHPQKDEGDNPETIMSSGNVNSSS

SMILES | EC50 [µM]
CNc1ccccc1-c1nc(-c2ccc3c(c2)nnn3C(C)C)no1 [Compound 599, N-methyl-2-{3-[1-(propan-2-yl)-1H-l,2,3-benzotriazol-5-yl]-1,2,4-oxadiazol-5-yl}aniline] | < 0.316
Cc1ccncc1-c1noc(-c2ccc3c(c2)nnn3C2CCOCC2)n1 [Compound 439, 5-[3-(4-methylpyridin-3-yl)-1,2,4-oxadiazol-5-yl]-1-(oxan-4-yl)-1H-1,2,3-benzotriazole] | > 0.316
COc1ccc2oc(-c3ccc4c(c3)nnn4CC(C)C)nc2c1 [Compound 451, 2-(1-isobutyl-1H-benzo[d][1,2,3]triazol-5-yl)-5-methoxy-benzo[d]oxazole] | < 0.316
COc1cccc2oc(-c3ccc4c(c3)nnn4CC(C)C)nc12 [Compound 450, 2-(1-isobutyl-1H-benzo[d][1,2,3]triazol-5-yl)-4-methoxy-benzo[d]oxazole] | < 0.316
COc1ccc2nc(-c3ccc4c(c3)nnn4C(C)C)oc2c1 [Compound 426, 2-(1-isopropyl-1H-benzo[d][1,2,3]triazol-5-yl)-6-methoxy-benzo[d]oxazole] | < 0.316
COc1ccccc1-c1nc(-c2ccc3c(c2)nnn3C(C)(C)CO)no1 [Compound 623, 2-(5-(5-(2-methoxy-phenyl)-1,2,4-oxadiazol-3-yl)-1H-benzo[d][1,2,3]triazol-1-yl)-2-methyl-propan-1-ol] | > 0.316
Cc1ccncc1-c1nc(-c2ccc3c(c2)nnn3C(C)(C)CO)no1 [Compound 625, 2-methyl-2-(5-(5-(4-methylpyridin-3-yl)-1,2,4-oxadiazol-3-yl)-1H-benzo[d] [1,2,3]triazol-1-yl)propan-1-ol] | > 0.316

Same assay, conditions: inhibition of cAMP production; potency; read-out: hS1P1 CAMP pEC50 (converted)

SMILES | EC50 [µM]
Cc1cc(C)cc(-c2noc(-c3ccc4c(c3)nnn4C3CCCCC3)n2)c1 [Compound 158, 1-cyclohexyl-5-[3-(3,5-dimethylphenyl)-1,2,4-oxadiazol-5-yl]-1H-1,2,3-benzotriazole] | > 0.316
FC(F)(F)c1cc(-c2noc(-c3ccc4c(c3)nnn4C3CC3)n2)ccc1OCc1ccccc1 [Compound 85, 5-{3-[4-(benzyloxy)-3-(trifluoromethyl)phenyl]-1,2,4-oxadiazol-5-yl}-1-cyclopropyl-1H-1,2,3-benzotriazole] | > 0.316
CCC1(CC)CC(=O)c2cc(-c3nc(-c4ccc(NS(C)(=O)=O)cc4)no3)ccc2O1 [Compound 262, N-(4-(5-(2,2-diethyl-4-oxochroman-6-yl)-l,2,4-oxadiazol-3-yl)phenyl)methane-sulfonamide] | < 0.316
COc1cccc(F)c1-c1noc(-c2ccc3c(c2)nnn3C(C)C)n1 [Compound 260, 3-(2-fluoro-6-methoxy-phenyl)-5-(1-isopropylbenzo-triazol-5-yl)-1,2,4-oxadiazole] | > 0.316
CC(F)CNc1ccc(-c2nc(-c3ccc4c(c3)CCC(=O)N4)no2)cc1C#N (stereo not shown) [Compound 348, 2-[(2-fluoropropyl)amino]-5-[3-(2-oxo-1,2,3,4-tetrahydroquinolin-6-yl)-1,2,4-oxadiazol-5-yl]benzonitrile] | < 0.316
COc1ccc(-c2noc(-c3ccc4c(c3)nnn4C3CCCC3)n2)c2ccccc12 [Compound 91, 1-cyclopentyl-5-[3-(4-methoxynaphthalen-1-yl)-1,2,4-oxadiazol-5-yl]-1H-1,2,3-benzotriazole] | > 0.316
CCC1(CC)CC(=O)c2cc(-c3nc(-c4ccc(O)nc4)no3)ccc2O1 [Compound 105, 2,2-diethyl-6-[3-(6-hydroxy-3-pyridyl)-1,2,4-oxadiazol-5-yl]chroman-4-one] | > 0.316
CC(C)n1ncc2cc(-c3nc(-c4ccccc4Br)no3)ccc21 [Compound 332, 3-(2-bromophenyl)-5-(1-isopropyl-1H-indazol-5-yl)-1,2,4-oxadiazole] | < 0.316
CC(C)n1ncc2cc(-c3nc(-c4ccccc4Cl)no3)ccc21 [Compound 330, 3-(2-chlorophenyl)-5-(1-isopropyl-1H-indazol-5-yl)-1,2,4-oxadiazole] | < 0.316
CC1(C)CC(=O)c2cc(-c3nc(-c4ccncc4)no3)ccc2O1 [Compound 291, 2,2-dimethyl-6-[3-(pyridin-4-yl)-1,2,4-oxadiazol-5-yl]-3,4-dihydro-2H-1-benzopy ran-4-one] | > 0.316
COc1ccccc1-c1nc(-c2ccc3c(c2)nnn3C2CCCC2)no1 [Compound 120, 3-(1-cyclopentyl-1H-benzo[d][1,2,3]triazol-5-yl)-5-(2-methoxyphenyl)-1,2,4-oxadiazole] | < 0.316
C=CCNc1ccc(-c2nc(-c3ccc4c(c3)nnn4C(C)C)no2)cc1C#N [Compound 150, 2-(allylamino)-5-(3-(1-isopropyl-1H-benzo[d][1,2,3]triazol-5-yl)-1,2,4-oxadiazol-5-yl)benzonitrile] | < 0.316
Cc1cccc(C)c1-c1noc(-c2ccc3c(c2)nnn3C(C)C)n1 [Compound 243, 3-(2,6-dimethyl-phenyl)-5-(1-isopropyl-1H-benzo[d][1,2,3]triazol-5-yl)-1,2,4-oxadiazole] | > 0.316
Cc1ccncc1-c1noc(-c2ccc3c(c2)nnn3C(C)C)n1 [Compound 101, 5-[3-(4-methylpyridin-3-yl)-1,2,4-oxadiazol-5-yl]-1-(propan-2-yl)-1H-1,2,3-benzotriazole] | < 0.316
Cc1ccccc1-c1noc(-c2ccc3c(c2)nnn3C2CCOCC2)n1 [Compound 95, 5-[3-(2-methylphenyl)-1,2,4-oxadiazol-5-yl]-1-(oxan-4-yl)-1H-1,2,3-benzotriazole] | > 0.316
N#Cc1cc(-c2nnc(-c3ccc4[nH]ncc4c3)o2)ccc1NCC1CC1 [Compound 352] | < 0.316
C=C(F)CNc1ccc(-c2nc(-c3ccc4c(c3)CCC(=O)N4)no2)cc1C#N [Compound 346, 2-[(2-fluoroprop-2-en-1-yl)amino]-5-[3-(2-oxo-1,2,3,4-tetrahydro-quinolin-6-yl)-1,2,4-oxadiazol-5-yl]benzonilrile] | < 0.316
CCC1(CC)CC(=O)c2cc(-c3nc(-c4ccncc4C(F)(F)F)no3)ccc2O1 [Compound 313, 2,2-diethyl-6-(3-(3-(trifluoromethyl)pyridin-4-yl)-1,2,4-oxadiazol-5-yl)chroman-4-one] | < 0.316
CC(C)n1nnc2cc(-c3nc(-c4ccccc4Br)co3)ccc21 [Compound 183, 5-[4-(2-bromophenyl)-1,3-oxazol-2-yl]-1-(propan-2-yl)-1H-1,2,3-benzotriazole] | < 0.316
COc1cc(-c2noc(-c3ccc4c(c3)nnn4C3CCCC3)n2)ccn1 [Compound 281, 1-cyclopentyl-5-[3-(2-methoxypyridin-4-yl)-1,2,4-oxadiazol-5-yl]-1H-1,2,3-benzotriazole] | > 0.316
COc1cccc(OC)c1-c1noc(-c2ccc3c(c2)nnn3C(C)C)n1 [Compound 251, 3-(2,6-dimethoxy-phenyl)-5-(1-isopropyl-benzotriazol-5-yl)-1,2,4-oxadiazole] | > 0.316
C=CCNc1ccc(-c2nc(-c3ccc(NS(C)(=O)=O)cc3)no2)cc1C#N [Compound 149, N-(4-(5-(4-(allylamino)-3-cyanophenyl)-1,2,4-oxadiazol-3-yl)phenyl) methanesulfonamide] | < 0.316
CC(C)Oc1ccc(-c2nc(-c3ccc4c(c3)nnn4C3CCCC3)no2)cc1 [Compound 121, 3-(1-cyclopentyl-1H-benzo[d][1,2,3]triazol-5-yl)-5-(4-isopropoxyphenyl)-1,2,4-oxadiazole] | > 0.316
CCC1(CC)CC(=O)c2cc(-c3nc(-c4cccc(OC)c4)no3)ccc2O1 [Compound 71, 2,2-diethyl-6-(3-(3-methoxyphenyl)-1,2,4-oxadiazol-5-yl)chroman-4-one] | > 0.316
COc1ccc(-c2nc(-c3ccc4c(c3)nnn4C(C)C)no2)c(C)c1 [Compound 90, 3-(1-isopropyl-1H-benzo[d][1,2,3]triazol-5-yl)-5-(4-methoxy-2-methylphenyl)-1,2,4-oxadiazole] | > 0.316
Cc1ncc(-c2nc(-c3ccc4c(c3)nnn4C(C)C)no2)nc1C [Compound 133, 5-(5,6-dimethylpyrazin-2-yl)-3-(1-isopropyl-1H-benzo[d][1,2,3]triazol-5-yl)-1,2,4-oxadiazole] | > 0.316
CC(C)n1nnc2cc(-c3noc(-c4ccccc4OC(F)(F)F)n3)ccc21 [Compound 240, 3-(1-isopropyl-1H-benzo[d][1,2,3]triazol-5-yl)-5-(2-(trifluoro-methoxy)phenyl)-1,2,4-oxadiazole] | > 0.316
Cc1ccccc1-c1noc(-c2ccc3nnn(C(C)C)c3c2)n1 [Compound 308, 6-[3-(2-methylphenyl)-1,2,4-oxadiazol-5-yl]-1-(propan-2-yl)-1H-1,2,3-benzotriazole] | > 0.316
Cc1ccncc1-c1noc(-c2ccc3nnn(C(C)C)c3c2)n1 [Compound 264, 6-[3-(4-methylpyridin-3-yl)-1,2,4-oxadiazol-5-yl]-1-(propan-2-yl)-1H-1,2,3-benzotriazole] | > 0.316
N#Cc1cc(-c2nc(-c3ccc4c(c3)CCC(=O)N4)no2)ccc1NCC1CC1 [Compound 302, 2-((cyclopropyl-methyl)amino)-5-(3-(2-oxo-1,2,3,4-tetrahydroquinolin-6-yl)-1,2,4-oxadiazol-5-yl)benzonitrile] | < 0.316
